In ChEMBL document CHEMBL1201862, “PubChem BioAssay data set” (2004):
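Grown in 96-well plates, cells were treated for 48 hours with each compound at five concentrations. Insufficient inhibition: endpoint recorded as highest concentration tested. GI50: concentration for 50% inhibition of growth.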 Calls of active or inactive are those of the source. No stated cut-off is given here; in the data, active = GI50 up to about 1.1 µM and inactive = higher.

Tests used:
Assay in all cases: NCI anticancer screen, dose series, 48 h
KM12 = system: KM12
UO-31 = system: UO-31
T47D = system: T47D
MCF7 = system: MCF7
NCI-H226 = system: NCI-H226
SK-MEL-28 = system: SK-MEL-28
SK-OV-3 = system: SK-OV-3
CCRF-CEM = system: CCRF-CEM
NCI-H460 = system: NCI-H460
U-251 = system: U-251
NCI-H522 = system: NCI-H522
BT-549 = system: BT-549
HL-60 = system: HL-60
COLO 205 = system: COLO 205
SNB-19 = system: SNB-19
HCT-116 = system: HCT-116
DU-145 = system: DU-145
MOLT-4 = system: MOLT-4
LOX IMVI = system: LOX IMVI

| SMILES | GI50 (KM12) | GI50 (UO-31) | GI50 (T47D) | GI50 (MCF7) | GI50 (NCI-H226) | GI50 (SK-MEL-28) | GI50 (SK-OV-3) | GI50 (CCRF-CEM) | GI50 (NCI-H460) | GI50 (U-251) | GI50 (NCI-H522) | GI50 (BT-549) | GI50 (HL-60) | GI50 (COLO 205) | GI50 (SNB-19) | GI50 (HCT-116) | GI50 (DU-145) | GI50 (MOLT-4) | GI50 (LOX IMVI) |
| --- | --- | --- | --- | --- | --- | --- | --- | --- | --- | --- | --- | --- | --- | --- | --- | --- | --- | --- | --- |
| CC1C2CC(CC(=O)N2)C1(C)C (stereo not given) | > 100 µM (inactive) | > 100 µM (inactive) | > 100 µM (inactive) | > 100 µM (inactive) | > 100 µM (inactive) | > 100 µM (inactive) | > 100 µM (inactive) | > 100 µM (inactive) | > 100 µM (inactive) | > 100 µM (inactive) | > 100 µM (inactive) | > 100 µM (inactive) | > 100 µM (inactive) | > 100 µM (inactive) | > 100 µM (inactive) | > 100 µM (inactive) | > 100 µM (inactive) |  |  |
| c1ccc(C(=NNc2cnc3ccccc3n2)c2ccccn2)cc1 | 4.08 µM (inactive) | 0.76 µM (active) | 0.0188 µM (active) | 0.371 µM (active) | 4.9 µM (inactive) | 12.3 µM (inactive) | 3.78 µM (inactive) | 0.208 µM (active) | 1.26 µM (inactive) | 2.31 µM (inactive) | 0.419 µM (active) | 8.18 µM (inactive) | 0.109 µM (active) | 0.119 µM (active) | 6.43 µM (inactive) | 1.76 µM (inactive) | 3.3 µM (inactive) | 0.139 µM (active) |  |
| COc1cc([N+](=O)[O-])c(OC)c2c(Nc3ccc(S(=O)(=O)O)c4cc(S(=O)(=O)O)cc(S(=O)(=O)O)c34)cc(C)nc12 | > 100 µM (inactive) | > 100 µM (inactive) | > 100 µM (inactive) | > 100 µM (inactive) | > 100 µM (inactive) | > 100 µM (inactive) | > 100 µM (inactive) | > 100 µM (inactive) |  | > 100 µM (inactive) | > 100 µM (inactive) | > 100 µM (inactive) | > 100 µM (inactive) | > 100 µM (inactive) |  | > 100 µM (inactive) | > 100 µM (inactive) | > 100 µM (inactive) | > 100 µM (inactive) |
| CC1CC(C)(C)CC(OCCN2CCCCC2)(c2ccccc2)C1 (stereo not given) | 7.35 µM (inactive) | 7.16 µM (inactive) | 12.9 µM (inactive) | 11.2 µM (inactive) | 20.7 µM (inactive) | 15.7 µM (inactive) | 14.7 µM (inactive) | 6.5 µM (inactive) | 4.21 µM (inactive) | 11.6 µM (inactive) | 5.87 µM (inactive) | 12.7 µM (inactive) | 11.4 µM (inactive) | 7.71 µM (inactive) | 12.9 µM (inactive) | 4.4 µM (inactive) | 6.61 µM (inactive) |  | 7.13 µM (inactive) |
| Oc1ccc(CCc2cc(O)cc(O)c2)cc1 [DIHYDRORESVERATROL] | > 100 µM (inactive) | > 100 µM (inactive) | > 100 µM (inactive) | > 100 µM (inactive) | 53.5 µM (inactive) | > 100 µM (inactive) | > 100 µM (inactive) |  | > 100 µM (inactive) | > 100 µM (inactive) | > 100 µM (inactive) | > 100 µM (inactive) | 50.4 µM (inactive) | > 100 µM (inactive) | > 100 µM (inactive) | > 100 µM (inactive) | > 100 µM (inactive) | 90.2 µM (inactive) |  |
| COc1ccc2c3c1O[C@H]1C(O)CCC4(O)[C@@H](C2)NCC[C@]314 (stereo not given in full) | > 100 µM (inactive) | > 100 µM (inactive) | > 100 µM (inactive) | > 100 µM (inactive) | > 100 µM (inactive) | > 100 µM (inactive) | > 100 µM (inactive) | > 100 µM (inactive) |  | > 100 µM (inactive) | > 100 µM (inactive) | > 100 µM (inactive) | > 100 µM (inactive) | > 100 µM (inactive) | > 100 µM (inactive) | > 100 µM (inactive) | > 100 µM (inactive) | > 100 µM (inactive) | > 100 µM (inactive) |
| Cc1cc(S(=O)(=O)N/C(=C(\C#N)C(=O)c2ccccc2)[n+]2ccc(N(C)C)cc2)c([S-])cc1Cl | > 100 µM (inactive) | > 100 µM (inactive) | > 100 µM (inactive) | > 100 µM (inactive) | > 100 µM (inactive) | > 100 µM (inactive) | > 100 µM (inactive) | > 100 µM (inactive) | > 100 µM (inactive) | > 100 µM (inactive) | 35.6 µM (inactive) | > 100 µM (inactive) | > 100 µM (inactive) | > 100 µM (inactive) | > 100 µM (inactive) | 37.2 µM (inactive) | > 10 µM (inactive) | 60.1 µM (inactive) |  |
| COc1ccccc1OCC(=N/NC(=O)c1ccncc1)/N=C/c1cccnc1 | > 100 µM (inactive) |  | > 100 µM (inactive) | > 100 µM (inactive) | > 100 µM (inactive) | > 100 µM (inactive) | > 100 µM (inactive) | > 100 µM (inactive) | > 100 µM (inactive) | > 100 µM (inactive) | > 100 µM (inactive) | > 100 µM (inactive) | > 100 µM (inactive) | > 100 µM (inactive) | > 100 µM (inactive) | > 100 µM (inactive) | > 100 µM (inactive) | > 100 µM (inactive) | > 100 µM (inactive) |
| CC(C(=O)c1ccncc1)c1ccccn1 (stereo not given) | > 100 µM (inactive) | > 100 µM (inactive) | > 100 µM (inactive) | > 100 µM (inactive) | > 100 µM (inactive) | > 100 µM (inactive) | > 100 µM (inactive) | > 100 µM (inactive) | > 100 µM (inactive) | > 100 µM (inactive) | > 100 µM (inactive) | > 100 µM (inactive) | > 100 µM (inactive) | > 100 µM (inactive) | > 100 µM (inactive) | > 100 µM (inactive) | > 100 µM (inactive) |  | > 100 µM (inactive) |
| BrCc1ccc(CBr)c2c1-c1c(CBr)ccc3ccc(CBr)c-2c13 | > 100 µM (inactive) | > 100 µM (inactive) | > 100 µM (inactive) | > 100 µM (inactive) | > 100 µM (inactive) | > 100 µM (inactive) | > 100 µM (inactive) |  | > 100 µM (inactive) | 49.8 µM (inactive) | > 100 µM (inactive) | > 100 µM (inactive) | 40.6 µM (inactive) |  | > 100 µM (inactive) | 98.6 µM (inactive) | > 100 µM (inactive) | 33.8 µM (inactive) | > 100 µM (inactive) |
| Cc1cc2c(c(S(=O)(=O)c3ccccc3[N+](=O)[O-])c1)NCCC2 | 63.8 µM (inactive) | 37.4 µM (inactive) | 6.44 µM (inactive) | 58.6 µM (inactive) | > 100 µM (inactive) | 54 µM (inactive) | > 100 µM (inactive) |  | 66.7 µM (inactive) | 83.9 µM (inactive) | 16.1 µM (inactive) | 19.1 µM (inactive) | 26.2 µM (inactive) | > 100 µM (inactive) | > 100 µM (inactive) |  | 77.1 µM (inactive) |  | 47.2 µM (inactive) |
| FC(F)(Sc1ncc[nH]1)c1nc2ccccc2o1 | > 100 µM (inactive) | > 100 µM (inactive) | > 100 µM (inactive) | > 100 µM (inactive) | > 100 µM (inactive) | > 100 µM (inactive) | > 100 µM (inactive) | > 100 µM (inactive) | > 100 µM (inactive) | > 100 µM (inactive) | > 100 µM (inactive) | > 100 µM (inactive) |  | > 100 µM (inactive) |  | > 100 µM (inactive) | > 100 µM (inactive) | > 100 µM (inactive) |  |
| COc1cc2c[n+](C)c3c(c2cc1OC)Cc1cc2c(cc1-3)OCO2 | > 100 µM (inactive) | > 100 µM (inactive) | > 100 µM (inactive) | > 100 µM (inactive) | > 100 µM (inactive) | > 100 µM (inactive) | > 100 µM (inactive) | 71.4 µM (inactive) |  | > 100 µM (inactive) | 52.4 µM (inactive) | 90.2 µM (inactive) | > 100 µM (inactive) | > 100 µM (inactive) | > 100 µM (inactive) | > 100 µM (inactive) | > 100 µM (inactive) | 48.9 µM (inactive) | > 100 µM (inactive) |
| O=C(O)C1[C@@H](C(=O)O)C1(Br)CBr (stereo not given in full) | > 100 µM (inactive) | > 100 µM (inactive) | > 100 µM (inactive) | > 100 µM (inactive) | > 100 µM (inactive) | > 100 µM (inactive) | > 100 µM (inactive) |  | > 100 µM (inactive) | > 100 µM (inactive) | > 100 µM (inactive) | > 100 µM (inactive) | > 100 µM (inactive) | > 100 µM (inactive) | > 100 µM (inactive) | > 100 µM (inactive) | > 100 µM (inactive) | > 100 µM (inactive) | > 100 µM (inactive) |
| CCNCCCNc1c2ccccc2nc2ccccc12 | 0.396 µM (active) | 0.334 µM (active) | 0.502 µM (active) | 0.193 µM (active) |  | 0.401 µM (active) | 1.33 µM (inactive) | 0.514 µM (active) | 0.196 µM (active) | 0.435 µM (active) | 0.183 µM (active) | 1.92 µM (inactive) | 0.493 µM (active) | 0.232 µM (active) | 0.499 µM (active) | 0.365 µM (active) | 0.525 µM (active) | 0.313 µM (active) | 0.251 µM (active) |
| COC(=O)CCCC(=O)NC1=C(NCc2ccccc2)C(=O)c2ccccc2C1=O | 53.7 µM (inactive) | > 100 µM (inactive) | 59.3 µM (inactive) | 30.3 µM (inactive) |  | > 100 µM (inactive) | 45.5 µM (inactive) | 36.3 µM (inactive) | 52 µM (inactive) | > 100 µM (inactive) | 70.5 µM (inactive) | 28.6 µM (inactive) | 29 µM (inactive) | 23.8 µM (inactive) | > 100 µM (inactive) | 32.1 µM (inactive) | > 100 µM (inactive) | 34 µM (inactive) | 46.2 µM (inactive) |
